These results are taken from US11339130B1 (Blade Therapeutics, Inc., priority 2016, dated 2022).

Assay [1] has as its system Calpain activity in SH-SY5Y cells (SBDP-150). Description: SH-SY5Y Spectrin western blot assay (SBDP-150 breakdown product, A23187-induced). It counts as cell-based. To be noted: Homo sapiens, SH-SY5Y cells, read-out: SH-SY5Y Spectrin IC50.
Assay [2] deals with T1, Human Calpain 9/NS1 (Homo sapiens, UniProt O14815).
T1 sequence (O14815 1-690): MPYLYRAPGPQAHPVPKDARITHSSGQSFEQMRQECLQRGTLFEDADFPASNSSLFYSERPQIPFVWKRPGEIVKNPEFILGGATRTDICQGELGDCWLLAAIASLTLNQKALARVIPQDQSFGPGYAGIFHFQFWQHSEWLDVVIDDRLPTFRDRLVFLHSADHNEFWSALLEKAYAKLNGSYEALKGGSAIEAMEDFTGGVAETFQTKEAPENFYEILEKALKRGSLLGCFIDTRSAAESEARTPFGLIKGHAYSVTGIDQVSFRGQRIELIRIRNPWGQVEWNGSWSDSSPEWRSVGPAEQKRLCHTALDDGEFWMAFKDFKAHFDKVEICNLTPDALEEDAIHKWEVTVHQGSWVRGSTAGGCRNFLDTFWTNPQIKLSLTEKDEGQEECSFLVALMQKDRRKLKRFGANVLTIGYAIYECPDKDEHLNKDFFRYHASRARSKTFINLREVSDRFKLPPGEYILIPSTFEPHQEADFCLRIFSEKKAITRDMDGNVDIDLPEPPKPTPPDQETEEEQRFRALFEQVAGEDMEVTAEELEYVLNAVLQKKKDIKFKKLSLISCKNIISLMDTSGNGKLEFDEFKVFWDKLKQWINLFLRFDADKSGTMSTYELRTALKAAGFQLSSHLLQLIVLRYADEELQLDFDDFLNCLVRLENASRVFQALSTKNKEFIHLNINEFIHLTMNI
T1 sequence (P04632 1-268 partner): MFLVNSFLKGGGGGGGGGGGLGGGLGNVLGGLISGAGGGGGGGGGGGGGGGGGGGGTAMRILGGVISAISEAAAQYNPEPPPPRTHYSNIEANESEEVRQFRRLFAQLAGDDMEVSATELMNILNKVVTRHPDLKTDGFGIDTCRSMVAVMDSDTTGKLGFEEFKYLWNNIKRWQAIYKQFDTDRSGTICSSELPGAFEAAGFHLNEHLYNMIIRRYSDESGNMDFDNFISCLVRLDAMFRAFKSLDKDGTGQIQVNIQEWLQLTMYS
The assay can be described thus: Calpain inhibition continuous fluorescence (FRET) assay, Human Calpain 9/NS1. It is filed as biochemical. To be noted: read-out: Human Calpain 9/NS1 IC50. The method in brief:
(§1)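 Human calpains 1, 2 and 9 preincubated with inhibitor at 25 °C in 50 mM Tris pH 7.5, 100 mM NaCl, 1 mM DTT; reaction started with 5-FAM/QXL 520 FRET peptide plus CaCl2 for activation. Fluorescence (490/520 nm) followed 10 min; rates from 1-5 min slopes fitted to 4-parameter logistic for IC50.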

Assay [3] deals with T2, Human Calpain 1/NS1 (Homo sapiens, UniProt P07384).
T2 sequence (P07384 1-714): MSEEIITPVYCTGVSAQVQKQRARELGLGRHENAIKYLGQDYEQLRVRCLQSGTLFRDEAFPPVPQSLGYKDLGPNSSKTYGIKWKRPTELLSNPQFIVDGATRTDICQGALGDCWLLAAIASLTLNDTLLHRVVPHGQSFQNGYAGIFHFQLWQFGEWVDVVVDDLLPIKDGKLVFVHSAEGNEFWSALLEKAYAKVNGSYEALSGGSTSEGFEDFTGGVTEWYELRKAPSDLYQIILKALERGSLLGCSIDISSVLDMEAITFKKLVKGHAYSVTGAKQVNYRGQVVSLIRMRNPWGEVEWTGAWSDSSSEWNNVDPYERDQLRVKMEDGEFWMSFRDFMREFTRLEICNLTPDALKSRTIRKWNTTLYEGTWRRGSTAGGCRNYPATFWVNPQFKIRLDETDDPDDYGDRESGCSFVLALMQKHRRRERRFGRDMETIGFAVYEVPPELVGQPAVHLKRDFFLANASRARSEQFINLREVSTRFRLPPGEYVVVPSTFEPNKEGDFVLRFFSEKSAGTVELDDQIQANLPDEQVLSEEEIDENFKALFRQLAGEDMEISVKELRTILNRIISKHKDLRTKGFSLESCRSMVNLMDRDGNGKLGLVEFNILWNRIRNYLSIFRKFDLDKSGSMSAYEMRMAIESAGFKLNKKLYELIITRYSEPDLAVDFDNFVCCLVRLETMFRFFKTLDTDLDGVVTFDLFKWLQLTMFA
T2 sequence (P04632 1-268 partner): T1 sequence (P04632 1-268 partner)
The assay can be described thus: Calpain inhibition continuous fluorescence (FRET) assay, Human Calpain 1/NS1. It counts as biochemical. To be noted: read-out: Human Calpain 1/NS1 IC50. The method in brief:
as §1

Assay [4] relates to Calpain activity in SH-SY5Y cells. The assay can be described thus: SH-SY5Y + AMC fluorescence assay (Suc-LLVY-AMC substrate). To be noted: read-out: SH-SY5Y + AMC IC50. It is filed as cell-based.
In assay [5] the target is T3, Human Calpain 2/NS1 (Homo sapiens, UniProt P17655).
T3 sequence (P17655 1-700): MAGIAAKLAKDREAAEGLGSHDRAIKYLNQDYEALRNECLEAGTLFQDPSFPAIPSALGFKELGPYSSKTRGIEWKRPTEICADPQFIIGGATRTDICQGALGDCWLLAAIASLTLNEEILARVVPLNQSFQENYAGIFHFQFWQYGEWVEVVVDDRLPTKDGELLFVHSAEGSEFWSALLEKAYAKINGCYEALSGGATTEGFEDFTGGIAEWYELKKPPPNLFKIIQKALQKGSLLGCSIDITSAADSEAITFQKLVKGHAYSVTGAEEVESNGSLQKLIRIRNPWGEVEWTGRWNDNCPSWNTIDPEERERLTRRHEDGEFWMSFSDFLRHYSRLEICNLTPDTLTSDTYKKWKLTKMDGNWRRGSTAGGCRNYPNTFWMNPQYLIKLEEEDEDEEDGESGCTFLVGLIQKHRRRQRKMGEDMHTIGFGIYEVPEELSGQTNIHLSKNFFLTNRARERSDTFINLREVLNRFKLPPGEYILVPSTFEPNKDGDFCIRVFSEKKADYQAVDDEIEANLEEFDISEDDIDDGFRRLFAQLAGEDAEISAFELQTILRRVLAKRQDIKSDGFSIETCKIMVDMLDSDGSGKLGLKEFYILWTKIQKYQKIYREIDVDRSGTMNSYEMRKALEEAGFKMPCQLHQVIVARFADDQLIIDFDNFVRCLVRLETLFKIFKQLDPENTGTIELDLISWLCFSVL
T3 sequence (P04632 1-268 partner): T1 sequence (P04632 1-268 partner)
Description: Calpain inhibition continuous fluorescence (FRET) assay, Human Calpain 2/NS1. To be noted: read-out: Human Calpain 2/NS1 IC50. It is filed as biochemical. In short, it runs like this: as §1

Where [6] appears, read: A23187-induced SBDP-150, western blot.
Where [7] appears, read: Column D, A23187-induced SBDP-150.

Molecules are shown by their SMILES. pIC50: −log10 of the molar value. Like-named read-outs stand apart in the source and are kept apart here. Where only a bound is given, the exact number is not on record here.

In the case of `Cn1cc(C(=O)N[C@H](C=O)Cc2ccccc2)c(-c2cccc(F)c2)n1` [Compound 328, (S)-3-(3-fluorophenyl)-1-methyl-N-(1-oxo-3-phenylpropan-2-yl)-1H-pyrazole-4-carboxamide], the pIC50 in assay [1] (setting [6]) is 4.60 to 5.00; in assay [2] it was > 5.52; in assay [3] it was > 5.52; in assay [4], < 4.60; in assay [5], > 5.52.
On to `Cc1cc(C(=O)NC(Cc2ccccc2)C(=O)C(N)=O)c(-n2ccc(-c3ccccc3)n2)s1` (stereo not drawn) [Compound 320, N-(4-amino-3,4-dioxo-1-phenylbutan-2-yl)-5-methyl-2-(3-phenyl-1H-pyrazol-1-yl)thiophene-3-carboxamide], for which the pIC50 is 4.60 to 5.00 in assay [1] (setting [6]); > 5.52 in assay [2]; > 5.52 in assay [3]; < 4.60 in assay [4]; > 5.52 in assay [5].
Take `NC(=O)C(=O)[C@H](Cc1ccccc1)NC(=O)c1conc1-c1ccccn1` [Compound 288, (S)—N-(4-amino-3,4-dioxo-1-phenylbutan-2-yl)-3-(pyridin-2-yl)isoxazole-4-carboxamide]: the pIC50 is < 4.60 in assay [1] (setting [7]); > 5.52 in assay [2] (Column C); > 5.52 in assay [3] (Column A); < 4.60 in assay [4] (Column E); > 5.52 in assay [5] (Column B).
In the case of `Cc1onc(-c2ccccc2)c1C(=O)N[C@@H](Cc1ccccc1)C(=O)C(N)=O` [Compound 27, (S)—N-(4-amino-3,4-dioxo-1-phenylbutan-2-yl)-5-methyl-3-phenylisoxazole-4-carboxamide], the pIC50 is 4.60 to 5.00 in assay [1] (setting [7]); > 5.52 in assay [2] (Column C); > 5.52 in assay [3] (Column A); < 4.60 in assay [4] (Column E); > 5.52 in assay [5] (Column B).
Regarding `CCn1cc(C(=O)NC(Cc2ccccc2)C(=O)C(N)=O)c(-c2ccc(F)cc2)n1` (stereo not drawn) [Compound 471, N-(4-amino-3,4-dioxo-1-phenylbutan-2-yl)-1-ethyl-3-(4-fluorophenyl)-1H-pyrazole-4-carboxamide], the pIC50 in assay [1] (setting [6]) is 4.60 to 5.00; in assay [2] it was > 5.52; in assay [3], > 5.52; in assay [4], 4.60 to 5.00; in assay [5], > 5.52.
On to `NC(=O)C(=O)[C@H](Cc1ccccc1)NC(=O)c1cncn1-c1ccc(-c2ncco2)cn1` [Compound 112, (S)—N-(4-amino-3,4-dioxo-1-phenylbutan-2-yl)-1-(5-(oxazol-2-yl)pyridin-2-yl)-1H-imidazole-5-carboxamide], for which the pIC50 in assay [1] (setting [7]) is > 5.00; in assay [2] (Column C), > 5.52; in assay [3] (Column A), > 5.52; in assay [4] (Column E), < 4.60; in assay [5] (Column B), > 5.52.
Regarding `Cc1cc(F)cc(-c2nn(C(F)F)cc2C(=O)NC(Cc2ccccc2)C(=O)C(N)=O)c1` (stereo not drawn) [Compound 554, N-(4-amino-3,4-dioxo-1-phenylbutan-2-yl)-1-(difluoromethyl)-3-(3-fluoro-5-methylphenyl)-1H-pyrazole-4-carboxamide], the pIC50 is > 5.00 in assay [1] (setting [6]); > 5.52 in assay [2]; > 5.52 in assay [3]; > 5.00 in assay [4]; > 5.52 in assay [5].
On to `NC(=O)C(=O)C(Cc1ccccc1)NC(=O)c1nsnc1-c1cccc2c1OC(F)(F)O2` (stereo not drawn) [Compound 578, N-(4-amino-3,4-dioxo-1-phenylbutan-2-yl)-4-(2,2-difluorobenzo[d][1,3]dioxol-4-yl)-1,2,5-thiadiazole-3-carboxamide], for which the pIC50 is > 5.00 in assay [1] (setting [6]); > 5.52 in assay [2]; > 5.52 in assay [3]; > 5.00 in assay [4]; > 5.52 in assay [5].
For the compound `Cn1cc(C(=O)NC(CCc2ccccc2)C(=O)C(N)=O)c(-c2ccccc2)n1` (stereo not drawn) [Compound 417, N-(1-amino-1,2-dioxo-5-phenylpentan-3-yl)-1-methyl-3-phenyl-1H-pyrazole-4-carboxamide], the pIC50 in assay [1] (setting [6]) was < 4.60; in assay [2], > 5.52; in assay [3] it was > 5.52; in assay [4], < 4.60; in assay [5], > 5.52.
Regarding `COc1cccc(-c2oncc2C(=O)NC(Cc2ccccc2)C(=O)C(N)=O)c1F` (stereo not drawn) [Compound 595, N-(4-amino-3,4-dioxo-1-phenylbutan-2-yl)-5-(2-fluoro-3-methoxyphenyl)isoxazole-4-carboxamide], the pIC50 in assay [1] (setting [6]) is 4.60 to 5.00; in assay [2] it was > 5.52; in assay [3] it was > 5.52; in assay [4] it was < 4.60; in assay [5], > 5.52.
For the compound `Cn1cc(C(=O)NC(Cc2ccccc2)C(=O)C(N)=O)c(-c2ccc3c(c2)OC(F)(F)O3)n1` (stereo not drawn) [Compound 548, N-(4-amino-3,4-dioxo-1-phenylbutan-2-yl)-3-(2,2-difluorobenzo[d][1,3]dioxol-5-yl)-1-methyl-1H-pyrazole-4-carboxamide], the pIC50 is < 4.60 in assay [1] (setting [6]); > 5.52 in assay [2]; > 5.52 in assay [3]; < 4.60 in assay [4]; > 5.52 in assay [5].
Take `Cn1cc(C(=O)NC(Cc2ccccc2)C(=O)C(N)=O)c(-c2ccsc2Cl)n1` (stereo not drawn) [Compound 501, N-(4-amino-3,4-dioxo-1-phenylbutan-2-yl)-3-(2-chlorothiophen-3-yl)-1-methyl-1H-pyrazole-4-carboxamide]: the pIC50 in assay [1] (setting [6]) is 4.60 to 5.00; in assay [2], > 5.52; in assay [3], > 5.52; in assay [4] it was > 5.00; in assay [5] it was > 5.52.
